Activity calls are given as the source filed them.
Columns and labels:
[1] = target: Luciferin 4-monooxygenase (Photinus pyralis, UniProt P08659); assay: firefly luciferase enzyme inhibitors, dose response, biochemical, luminescence (AID 1891)
[2] = Luminescence Cell-Based Dose Confirmation HTS to Identify Inhibitors of Platelet Dense Granule Release. [Related pubchem assays: 1663 (Primary HTS), 1678 (Summary of Project)]; format: functional
[3] = growth suppression of beta-catenin-knockout colon cells, dose response, cell-based, HCT116, human colon tumor (AID 1045); format: functional;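 note: HCT116 colon tumor cells with beta catenin knocked out; cells exposed to compound for 60 hours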
[4] = growth suppression of PTEN-null colon cells, dose response, cell-based, HCT116 PTEN knockout (AID 1047); format: functional;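 note: HCT116 colon tumor cells with PTEN knocked out; cells exposed to compound for 60 hours before readout; potency for loss of cell viability measured by luminescence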
Cytochrome P450 3A4 = Cytochrome P450 3A4 (Homo sapiens, UniProt P08684);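 note: CYP3A4 tested as one member of a cytochrome P450 panel screen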
Chain of Cytochrome P450 3A4 (P08684 whole entry): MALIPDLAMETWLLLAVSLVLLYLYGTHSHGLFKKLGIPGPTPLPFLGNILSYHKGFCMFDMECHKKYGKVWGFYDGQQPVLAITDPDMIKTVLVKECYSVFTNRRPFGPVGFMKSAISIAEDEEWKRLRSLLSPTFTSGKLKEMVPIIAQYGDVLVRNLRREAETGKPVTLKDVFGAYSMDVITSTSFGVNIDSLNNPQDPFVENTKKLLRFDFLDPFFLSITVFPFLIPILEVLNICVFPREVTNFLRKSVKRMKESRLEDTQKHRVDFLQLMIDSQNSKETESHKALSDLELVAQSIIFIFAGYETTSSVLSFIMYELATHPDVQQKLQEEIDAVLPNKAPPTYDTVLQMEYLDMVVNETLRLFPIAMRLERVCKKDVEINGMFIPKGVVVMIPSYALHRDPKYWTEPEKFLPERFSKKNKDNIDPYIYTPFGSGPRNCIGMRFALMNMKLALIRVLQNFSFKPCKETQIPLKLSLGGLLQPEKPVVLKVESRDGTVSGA

Cytochrome P450 2C19 = Cytochrome P450 2C19 (Homo sapiens, UniProt P33261); assay: Cytochrome panel assay with activity outcomes. Panel member name: p450-cyp2c19 Compounds with AC50 equal or less than 10 uM are considered active; format: functional
Chain of Cytochrome P450 2C19 (P33261 whole entry): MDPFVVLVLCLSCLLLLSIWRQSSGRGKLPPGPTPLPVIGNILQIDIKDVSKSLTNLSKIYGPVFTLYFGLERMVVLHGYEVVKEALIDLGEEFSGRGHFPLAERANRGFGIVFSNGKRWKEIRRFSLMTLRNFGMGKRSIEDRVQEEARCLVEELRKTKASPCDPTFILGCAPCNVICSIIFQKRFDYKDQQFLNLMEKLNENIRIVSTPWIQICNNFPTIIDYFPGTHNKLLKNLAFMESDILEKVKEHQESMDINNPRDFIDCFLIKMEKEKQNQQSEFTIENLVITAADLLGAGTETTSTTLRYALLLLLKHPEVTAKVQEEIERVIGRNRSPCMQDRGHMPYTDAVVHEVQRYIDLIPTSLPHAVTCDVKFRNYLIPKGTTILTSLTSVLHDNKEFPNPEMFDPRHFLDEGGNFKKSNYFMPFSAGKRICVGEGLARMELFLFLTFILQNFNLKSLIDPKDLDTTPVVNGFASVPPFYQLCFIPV

[5] = Luminescence Cell-Based Dose Retest to Confirm Inhibitors of Cancer Stem Cells. [Related pubchem assays (depositor defined):AID2717, AID2721]; format: functional, Homo sapiens; conditions: Homo sapiens
[6] = HEp-2 cell cytotoxicity, dose response, cytotoxicity control for RSV inhibitor project, HTS (AID 2410); format: functional; conditions: human respiratory syncytial virus
Streptokinase A = target: T1, Streptokinase A (Streptococcus pyogenes serotype M1, UniProt P10520); assay: S. pyogenes streptokinase expression inhibitors, potency, dose response, plasminogen activation absorbance, OD405 (AID 1914); format: functional, Streptococcus pyogenes M1 GAS;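 note: secreted streptokinase activity via plasminogen activation per viability signal from cell pellet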
T1 sequence (P10520 whole entry): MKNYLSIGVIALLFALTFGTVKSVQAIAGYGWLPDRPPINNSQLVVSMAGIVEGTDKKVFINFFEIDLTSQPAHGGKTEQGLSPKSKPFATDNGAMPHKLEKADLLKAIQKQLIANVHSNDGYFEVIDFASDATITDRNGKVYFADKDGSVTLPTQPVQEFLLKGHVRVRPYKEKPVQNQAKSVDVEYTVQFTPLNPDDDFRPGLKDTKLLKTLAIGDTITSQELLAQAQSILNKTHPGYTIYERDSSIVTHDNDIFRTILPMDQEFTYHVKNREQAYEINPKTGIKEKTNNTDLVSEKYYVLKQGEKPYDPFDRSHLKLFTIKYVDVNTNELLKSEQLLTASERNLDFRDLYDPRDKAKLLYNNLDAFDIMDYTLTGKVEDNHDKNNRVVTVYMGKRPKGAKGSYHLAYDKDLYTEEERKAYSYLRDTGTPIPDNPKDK

Streptococcus = assay: Group A Streptococcus viability loss, dose response, counter-screen for streptokinase expression inhibitor project, luminescence, BacTiterGlo (AID 1915); format: functional, organism-based;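 note: potency for reduction of bacterial viability or growth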
[7] = system: Streptococcus sp. 'group A'; assay: growth inhibition of control SK(-) GAS strain, dose response, counter-screen for streptokinase expression inhibitor project, luminescence, kanamycin, BacTiterGlo, confirmation (AID 1900); format: functional, organism-based
INS1 = assay: beta cell apoptosis inhibitors, cytokine rescue, dose response, luminescence, retest (AID 449756); format: functional, cell-based; conditions: Rattus norvegicus;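 note: cell death triggered by IL-1 beta plus TNF-alpha plus IFN-gamma mixture; protective hits raise ATP signal compared with cytokine alone wells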
[8] = cytotoxicity toward NIH3T3 fibroblasts, dose response, counter-screen, cell-based, ATP luminescence, mouse fibroblasts (AID 2010); format: functional;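 note: cells exposed to compound for about 90 hours before reading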
[9] = inhibitors of intracellular T. cruzi replication, confirmation, NIH3T3 host cells, beta-gal luminescence (AID 2044); format: functional, cell-based;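 note: intracellular parasites grown in NIH/3T3 mouse fibroblasts as host cells; luminescent beta-galactosidase reporter signal from transgenic T. cruzi replicating inside host cells; inhibitors lower the luminescence signal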

Chain of Luciferin 4-monooxygenase (P08659 whole entry): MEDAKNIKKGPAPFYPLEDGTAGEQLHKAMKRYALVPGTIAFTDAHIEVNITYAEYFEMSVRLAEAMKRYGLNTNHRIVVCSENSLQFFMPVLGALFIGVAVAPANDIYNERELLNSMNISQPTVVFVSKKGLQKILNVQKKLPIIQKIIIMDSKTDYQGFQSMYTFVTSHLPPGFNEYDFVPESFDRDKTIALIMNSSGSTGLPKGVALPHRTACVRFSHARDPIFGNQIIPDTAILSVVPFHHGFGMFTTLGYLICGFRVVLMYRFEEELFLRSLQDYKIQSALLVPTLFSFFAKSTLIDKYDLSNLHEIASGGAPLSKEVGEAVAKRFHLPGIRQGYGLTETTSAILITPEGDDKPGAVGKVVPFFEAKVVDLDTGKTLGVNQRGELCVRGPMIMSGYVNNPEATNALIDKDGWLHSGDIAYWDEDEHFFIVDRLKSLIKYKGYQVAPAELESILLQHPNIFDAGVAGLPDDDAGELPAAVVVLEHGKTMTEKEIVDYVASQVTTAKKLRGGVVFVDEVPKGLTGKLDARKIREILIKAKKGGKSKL

SMILES: CCOC(=O)C1=NN(C(=O)Nc2ccc(OC)cc2)C2C(=O)N(c3cccc(C(F)(F)F)c3)C(=O)C12 (stereo unspecified)
- EC50 [1]: > 112 µM (not active)
- EC50 [2]: 27.2 µM (active)

SMILES: O=[N+]([O-])c1cccc(/C=C/c2nc(/C=N/c3ccc4ccccc4c3)c(O)o2)c1
- EC50 [3]: 18 µM (active)
- EC50 [4]: 12.8 µM (active)

SMILES: COc1cc(NC(=S)N2CCN(C/C=C/c3ccccc3)CC2)cc(OC)c1
- EC50 [1]: > 112 µM (not active)
- EC50 [2]: > 112 µM (not active)

SMILES: COc1ccccc1C(=O)COC(=O)/C=C/c1ccccc1
- EC50 [1]: > 112 µM (not active)
- EC50 [2]: > 112 µM (not active)

SMILES: CC(C)c1cccc2nc3c(c(C(C)(C)C)c12)Cn1c-3cccc1=O
- AC50 (Cytochrome P450 3A4): 5.01 µM (inconclusive)
- AC50 (Cytochrome P450 2C19; read-out: AC50): 25.1 µM (inconclusive)

SMILES: Cc1ccc2c(c1)C1CCCC3C1N2CC(=O)N3Cc1ccccc1 (stereo unspecified)
- EC50 [3]: 62.7 µM (active)
- EC50 [4]: 33.9 µM (active)

SMILES: OC(COc1cccc2ccccc12)CN1CCN(c2ccc(Cl)cc2)CC1 (stereo unspecified)
- AC50 [5]: 6.37 µM (active)
- CC50 [6]: 12 µM (active)
- EC50 (Streptokinase A): 31.1 µM (active)
- EC50 (Streptococcus): 34.3 µM (active)
- EC50 [7]: 19.7 µM (active)

SMILES: CCCNC(=O)OC[C@@H]1O[C@H](CCON=C(C)C)C=C[C@@H]1Oc1ccc(OC)cc1
- AC50 (Cytochrome P450 3A4): 3.98 µM (inconclusive)

SMILES: COCC(=O)N/N=C/c1ccc(Sc2nc3ccccc3s2)o1
- AC50 (Cytochrome P450 3A4): 22.4 µM (inconclusive)

SMILES: C=C(CC1([C@@H](NP(=O)(c2ccccc2)c2ccccc2)[C@H]2C[C@@H]2CCCC)CC1)c1ccccc1
- AC50 [5]: 3.22 µM (active)
- AC50 (Cytochrome P450 2C19; read-out: AC50): 7.94 µM (inconclusive)
- EC50 (Streptokinase A): > 150 µM (not active)
- EC50 (Streptococcus): 4.4 µM (active)
- EC50 [7]: 2.27 µM (active)

SMILES: Cc1ccc(NS(=O)(=O)c2cccc(C(=O)N3CCCCCCC3)c2)cc1
- EC50 [1]: > 112 µM (not active)
- EC50 [2]: > 112 µM (not active)

SMILES: Cc1cc(C(C)(C)C)c(OCCCN2CCOCC2)c(C(C)(C)C)c1
- AC50 (Cytochrome P450 3A4): 3.16 µM (inconclusive)

SMILES: O=C(N/N=C\c1ccc(CNS(=O)(=O)c2ccc(Cl)cc2)o1)C(=O)Nc1ccc(Oc2ccccc2)cc1
- EC50 [3]: 11.1 µM (active)
- EC50 [4]: 9.47 µM (active)

SMILES: C=CCNC(=O)/C(C#N)=C/c1c(N(Cc2ccccc2)Cc2ccccc2)nc2ccccn2c1=O
- EC50 [3]: 25.3 µM (active)
- EC50 [4]: 26 µM (active)

SMILES: COC(=O)c1ccc2c(=O)n(-c3ccccc3)c(SCN3C(=O)c4ccccc4C3=O)nc2c1
- AC50 (INS1): 6.09 µM (active)

SMILES: Cc1cc(NC(=O)Cn2nc(C)c([N+](=O)[O-])c2C)no1
- EC50 [1]: > 112 µM (not active)
- EC50 [2]: > 112 µM (not active)

SMILES: CN(C)CCNc1ccccn1
- AC50 (Cytochrome P450 2C19): inconclusive

SMILES: c1ccc2[nH]c(-c3nc4ccccc4[nH]3)nc2c1
- EC50 [1]: 2.11 µM (active)
- EC50 [2]: 3.25 µM (active)

SMILES: CC(Nc1nc(N2CCCC2)nc2ccccc12)c1ccccc1 (stereo unspecified)
- EC50 [8]: 55.9 µM (active)
- EC50 [3]: 4.31 µM (active)
- EC50 [4]: 5.65 µM (active)
- EC50 [9]: 568 nM (active)

SMILES: COc1ccc(Cl)cc1NC(=O)c1cc(S(=O)(=O)N2CCCC2)cn1C
- EC50 [1]: > 112 µM (not active)
- EC50 [2]: > 112 µM (not active)

SMILES: C=CCNC(=O)c1ccc2nc(-c3ccccc3)c(-c3ccccc3)nc2c1
- AC50 (Cytochrome P450 2C19; read-out: AC50): 39.8 µM (inconclusive)

SMILES: CC(C)(C)NC(=O)C(c1ccccn1)N(C(=O)C1CSC(=O)C1)c1ccc(F)cc1 (stereo unspecified)
- AC50 (Cytochrome P450 3A4): 0.794 µM (inconclusive)

SMILES: CC[C@]1(c2ccccc2OC)ON(c2ccccc2C(F)(F)F)C1=O
- AC50 (INS1): 1.75 µM (active)

SMILES: Oc1nc2cc(NC(S)=Nc3ccccc3Cl)ccc2[nH]1
- EC50 [2]: > 112 µM (not active)

SMILES: [O-][n+]1c2c([n+]([O-])c3cc(F)c(F)cc31)CCCC2
- AC50 (Cytochrome P450 2C19; read-out: AC50): 1 µM (inconclusive)

SMILES: COCCn1c(=O)c(-c2cc(F)cc(F)c2)nc2cncnc21
- AC50 (Cytochrome P450 3A4): 15.8 µM (inconclusive)

SMILES: O=C1COc2ccc(C(=O)COC(=O)c3cc(S(=O)(=O)N4CCOCC4)ccc3F)cc2N1
- EC50 [1]: > 112 µM (not active)
- EC50 [2]: 22.9 µM (active)

SMILES: COc1ccc(/C(C)=N/Nc2nc(C)cc(-c3ccccc3)n2)cc1
- AC50 (INS1): 0.703 µM (active)

SMILES: COc1c(/C=N/Nc2nc(N3CCCCC3)nc(N3CCCCC3)n2)cccc1[N+](=O)[O-]
- AC50 (Cytochrome P450 2C19; read-out: AC50): 7.94 µM (inconclusive)

SMILES: CCN(CC)c1ccc(C(=O)N/N=C/c2ccccc2OC(F)F)cc1
- AC50 (INS1): 5.97 µM (active)

SMILES: Cc1c(C(=O)Nc2ccc(-c3nnc4n3CCCCC4)cc2)oc2c1ccc1ccccc12
- EC50 [8]: > 60 µM (not active)
- AC50 [5]: 2.48 µM (active)
- EC50 [3]: 20.9 µM (active)
- EC50 [4]: 19.8 µM (active)
- EC50 [9]: 1450 nM (active)

SMILES: O=C(c1ccco1)N1CCC2(CCCN(c3ccccc3)C2)CC1
- AC50 (Cytochrome P450 3A4): 15.8 µM (inconclusive)

SMILES: COCCn1c(N)c(C(=O)Nc2sc3c(c2C(=O)OC)CCCC3)c2nc3ccccc3nc21
- CC50 [6]: > 50 µM (active)
- EC50 (Streptokinase A): > 150 µM (not active)
- EC50 (Streptococcus): 82.4 µM (active)
- EC50 [7]: 1.83 µM (active)

SMILES: Cc1nc2ccccc2n1CC(=O)N/N=C\c1ccccn1
- AC50 (Cytochrome P450 2C19): inconclusive

SMILES: COc1ccc(CNCc2cc3c(C(C)(C)C)nn(-c4ccccc4)c3nc2O)cc1
- EC50 [3]: 14.2 µM (active)
- EC50 [4]: 10.3 µM (active)

SMILES: Nc1c(C(=O)NCCN2CCOCC2)c2nc3ccccc3nc2n1CCc1ccccc1
- EC50 [3]: 17.9 µM (active)
- EC50 [4]: 15.4 µM (active)

SMILES: COc1ccc2[nH]cc(C=O)c2c1
- AC50 (Cytochrome P450 2C19; read-out: AC50): 28.2 µM (inconclusive)

SMILES: COC(=O)c1cc(=O)n(Cc2ccco2)/c(=N/c2ccc(F)c(Cl)c2)s1
- EC50 [3]: 7.55 µM (active)
- EC50 [4]: 8.9 µM (active)

SMILES: CCc1ccc2c(c1)C1(NN=C(c3ccc(C)cc3)S1)C(=O)N2 (stereo unspecified)
- EC50 [3]: 2.81 µM (active)
- EC50 [4]: 4.58 µM (active)

SMILES: CCOC(=O)C1=C(c2ccccc2)N=c2s/c(=C\c3cccc(O)c3)c(=O)n2C1c1cccs1 (stereo unspecified)
- AC50 [5]: 2.94 µM (active)
- EC50 [3]: 15.1 µM (active)
- EC50 [4]: 15 µM (active)

SMILES: COc1cc(C2c3c(-c4cc(Cl)c(C)cc4O)n[nH]c3C(=O)N2Cc2cccnc2)ccc1O (stereo unspecified)
- EC50 [1]: > 112 µM (not active)
- EC50 [2]: 85 µM (active)

SMILES: CC1CC(OC(=O)CN2CCCCC2)CC(C)(C)C1 (stereo unspecified)
- EC50 [1]: > 112 µM (not active)
- EC50 [2]: > 112 µM (not active)

SMILES: NC(=O)c1c(NC(=O)c2ccc(S(=O)(=O)N(CCCl)CCCl)cc2)sc2c1CCCCC2
- EC50 [3]: 20.5 µM (active)
- EC50 [4]: 15 µM (active)

SMILES: CCN=C(S)NNC(=O)c1cc(-c2cccc(OC)c2)nc2ccccc12
- EC50 [1]: 0.259 µM (active)
- EC50 [2]: 7.86 µM (active)

SMILES: O=C(/C=C/c1ccc(-c2ccccc2)cc1)NCc1cccnc1
- AC50 (INS1): 7.49 µM (active)

SMILES: Fc1ccc2nc(Nc3nc4c(F)cc(F)cc4s3)sc2c1
- AC50 (INS1): 7.02 µM (active)

SMILES: COCCNC(=O)c1cn(Cc2c(F)cccc2Cl)nn1
- EC50 [1]: > 112 µM (not active)
- EC50 [2]: > 112 µM (not active)

SMILES: COc1ccc(OC)c2sc(NC(=O)CCS(=O)(=O)c3ccccc3)nc12
- EC50 [3]: 62 µM (active)
- EC50 [4]: 81.3 µM (active)

From ChEMBL document CHEMBL1201862, “PubChem BioAssay data set” (2004)
